Reference: patent US20150374709A1, “TETRA-SUBSTITUTED NDGA DERIVATIVES VIA ETHER BONDS AND CARBAMATE BONDS AND THEIR SYNTHESIS AND PHARMACEUTICAL USE” (ERIMOS PHARMACEUTICALS LLC, priority 2006, published 2015)
Where “and” joins values, the source holds several entries; their conditions need not be identical. Equal values may be shown once. Where a name gives a salt, the structure may show the parent alone. Read-outs that look alike come from different tables or passages of the source.

What was measured:
COS-7 cells = assay: MTT cytotoxicity assay in COS-7 cells (run with SEAP); type: cell-based, green monkey; conditions: COS-7 test cells of the SEAP assay
Method: The MTT assay is a colorimetric method for determining the number of viable cells. Metabolically active cells turn the MIT reagent, (3-(4,5-dimethylthiazol-2-yl)-2,5-diphenyltetrazolium bromide, into purple-colored formazan crystals that are solubilized in dimethyl sulfoxide (DMSO). The MTT reagent is added to MTT (colorless) media. The media is added to the cells and they are incubated for 4 hours. DMSO is added to the cells and mixed. The colored solutions are then read at 540 nm and corrected at 630 nm. The IC50 is estimated by graphing the gathered data.
The cells are analyzed by the MTT assay to compare cytotoxicity to SEAP inhibition. The goal is for the drug to inhibit SEAP without being too toxic.
The MTT assay measures cellular-proliferation and is used to verify that the levels of SEAP activity are not solely due to cytotoxicity. These assays was used in screening for potential drug compound leads as antiviral agents, and particularly, anti-HIV candidates.

[1] = test system: HeLa (cervical adenocarcinoma); assay: MTS cell viability assay, HeLa; type: cell-based; conditions: read-out: HeLa IC50
Excerpt: (§1) Studies performed regarding cytotoxicity included the well-known MTS, Trypan Blue and MTT protocols. The MTS studies were done using the CellTiter 96®AQueous One Solution Cell Proliferation Assay (Promega Corporation, Madison, Wis. USA). Metabolically active, namely viable, cells turn MTS, a tetrazolium compound (3-(4,5-dimethylthiazol-2-yl)-5-(3-carboxymethoxyphenyl)-2-(4-sulfophenyl)-2H-tetrazolium, inner salt) into colored formazan, which is soluble in tissue culture medium. The measurement of the absorbance of the formazan is read at 490 nm. The ready to use reagent is added directly to the cells in media in 96-well plates, incubated 1-4 hours and the results are recorded by the plate reader. The IC50 is estimated by graphing the gathered data. The IC50 is the concentration of the tested material that inhibits 50% of growth or viability of the tested material compared to a control.
(§2) Three cell lines obtained from ATCC and maintained as directed by ATCC were tested: HeLa (cervical adenocarcinoma), A549 (lung carcinoma), and COS-7 (SV40 transformed monkey kidney). Studies of these cell lines are considered to be indicative of the effect of tested substances on mammalian, including human, diseases.
(§3) All compounds were dissolved in DMSO and DMSO is used as the placebo. The samples were first dissolved into 10 mM dilutions in DMSO and then diluted further to 5, 1, 0.5, 0.1, 0.05, and 0.01 mM solutions. These solutions were added to the media at a 1% concentration (1 μl to 100 μl media) to treat the cells with 100, 50, 10, 5, 1, 0.5, and 0.1 μM of the compound. […] Solutions were checked before use for precipitation, especially the 10 mM solutions. If there was precipitation, they were warmed 65° C. and added to warmed media.
(§4) Wells on a 96-well plate were seeded with 1.5-8×10^4 cells in 100 μl media and incubated overnight. The outside wells of the plate were filled with 200 μl sterile, deionized (DI) water to curb media evaporation. After 24 hours, test chemicals were prepared in media at a concentration of 1% media volume. The test sample media were added, mixing with pipette before adding 100 μl per well. Media was added to the “Media Only” wells. The well plate and its contents were incubated for 24-72 hours, depending on the study conducted. On the thy of the MTS assay, the MTS reagent was removed from the refrigerator and brought to room temperature. Using the multichannel pipette, 20 μl of the MTS reagent was added to each well and incubated for one to four hours. The plate was read at 490 nm with a reference wavelength of 690 nm after one hour in the incubator thereafter until the blank wells were at about 0.2 OD. The results were then scanned into a Microsoft® Excel® template designed to perform all necessary calculations whim data are entered. The data were checked for statistical errors; data points that are within 10% of the mean of the data points for that group were included. The average of the blanks (“Media Only”) were subtracted and the data were inserted into a chart that represents growth response, treated/untreated.

MCP-1 = MCP-1 protein production in TNF-α-treated primary human keratinocytes; type: cell-based
Method: Anti-inflammatory activity was determined based on the effect of tested compounds on primary human keratinocytes (PHKs). PHKs play an important role in inflammatory processes, synthesizing a number of cytokines, adhesion molecules and growth factors. Studies were conducted to determine whether tested compounds could inhibit keratinocytes to prevent or reduce production of interferon gamma (IFN-γ), interleukin-8 (IL-8), tumor necrosis factor alpha (TNF-α), granulocyte/macrophage colony-stimulating factor (GM-CSF), intercellular adhesion molecule-1 (ICAM-1, also known as CD54) and monocyte chemotactic protein-1 (MCP-1). PHKs are first treated with TNF-α to induce a pro-inflammatory state and release of pro-inflammatory cytokines. Specific cytokines are then assayed following manufacturer's instructions using R&D Systems. Inc.'s protein assays (Quantikine ELISA kits; Catalog Nos. DCP00 for MCP-1 kit, DCM00 for GM-CSF kit, and DIF50 for IFN-γ).
Anti-inflammatory activity of several of the compounds of the previously described working examples was determined based on the effect of tested compounds on primary human keratinocytes (PHKs) as described above and following the manufacturer's instructions for the various kits used in the studies. While these studies more typically are used mostly for anti-inflammatory investigations, they can also apply to vascular diseases, since the results in keratinocytes may be extrapolated to vascular endothelium.
Only MCP-1 data with PHKs is dose-dependent, so an IC50 for MCP-1 can be calculated, but not for the other cytokines.

[2] = test system: TAT-mediated transactivation of HIV transcription (HIV-1 LTR promoter); assay: SEAP assay of TAT-mediated transactivation (antiviral activity); type: cell-based, human immunodeficiency virus (HIV); conditions: for EC50: Human immunodeficiency virus 1, COS-7, 48 h, read-out: SEAP EC50
Method: Antiviral activity is determined using a SEAP (SEcreted Alkaline Phosphatase) assay, in which cells are co-transfected with SEAP and TAT plasmids. TAT is a transactivator, human immunodeficiency virus (HIV) gene expression and is one of the two or more necessary viral regulatory factors (TAT and REV) for HIV gene expression. TAT acts iv binding to the TAR RNA element and activating transcription from the long terminal repeat (LTR) promoter. […] Previous studies have shown that TAT mediates reduction of antibody-dependent T cell proliferation, contributing substantially to the failure of the immune response. TAT also directly stimulates Kaposi's cell growth.
Since TAT has no apparent cellular homologs, this strong positive regulator has become an attractive target for the development of anti-AIDS drugs. In contrast to currently available HIV reverse transcriptase inhibitors (AZT, DDI) or potential protease inhibitors that prevent new rounds of infection, an inhibitor which suppresses viral gene TAT regulated expression of integrated proviral DNA will arrest the virus at an early stage (Hsu et al., Science 254:1799-1802, 1991). Efforts aimed at the elucidation of factors which control gene expression at transcriptional and post-transcriptional levels in host eukaryotes have recently made possible quantitative assessment of TAT function (Sim, Ann. N.Y. Acad. Sci. 616: 64-70, 1990). To screen for inhibitors for TAT regulated transactivation (TAT-TRS), the SEAP reporter gene is put under the control of HIV-1 LTR promoter in the plasmid pBC12/HIV/SEAP. The TAT-coded activity is supplied by a second plasmid construct pBC12/CMV/t2. Transient co-transfection of COS-7 cells with these two plasmids leads to secretion of alkaline phosphatase into the culture medium which is analyzed by a simple colorimetric assay (Berger et al., Gene 66: 1-10, 1988). […]
In the SEAP assay, an inhibitor should cause reduction of SEAP reporter gene expression via transactivation of the HIV-1 LTR promoter by TAT protein (TAT-TRS). […] SEAP is detected colorimetrically by the para-nitrophenyl phosphate substrate at 405 nm. […] The cells are analyzed by the MTT assay to compare cytotoxicity to SEAP inhibition. […]
COS-7 (green monkey kidney) cells were co-transfected using Fugene 6 reagent (Roche Applied Science, Cat. No. 11815091001, Indianapolis, Ind., USA) with two plasmids: pHIVSEAP (SEAP expression vector under the control of the HIV LTR promoter) and pCTAT (HIV TAT transcription factor expression vector under the control of a CMV (cytomegalovirus) promoter). After test compound treatment for 48 hours, samples were analyzed for […] at 405 nm after addition of the p-nitrophenyl phosphate substrate. The percentage of SEAP activity inhibition was calculated in relation to the placebo control.

A549 (lung carcinoma) = assay: MTS cell viability assay, A549; type: cell-based; conditions: Homo sapiens
Excerpt: as §1, §2, §3, §4

[3] = test system: apoptosis of cells based on DNA fragmentation; assay: TiterTACS DNA fragmentation apoptosis assay; type: cell-based; conditions: TiterTACS apoptosis detection
Method: Antiproliferative activity is determined using the TiterTACS® Apoptosis Detection Kit (R&D Systems Inc., Minneapolis, Minn. USA) relating to apoptosis of cells based on DNA fragmentation, and by the ELISA VEGF ([…]) and survivin assays.
In the DNA fragmentation assay, in situ detection of apoptosis is specifically achieved with TiterTACS® 96-well Apoptosis Detection kit, Catalog No. TA600 (R&D Systems, Inc.). The TiterTACS® assay provides quantification of apoptosis in cultured cells without direct counting of labeled cells using colorimetric detection. Cells are treated with the test compounds, left untreated as experimental negative controls, or treated with TACS nuclease as positive controls. TACS nuclease allows positive controls to be generated for each experimental system: a brief treatment of cells with the TACS nuclease prior to labeling generates DNA breaks in every cell, providing an appropriate positive control specific for the system under study. The TdT enzyme that catalyzes the addition of dNTPs to DNA fragments allows for colorimetric detection of at 450 nm by using a streptavidin-HRP solution followed by the TACS-Sapphire substrate. A high absorbance at 450 nm is indicative of apoptosis in the cells. Treated cells are compared to untreated cells and to nuclease-cleaved cells to assess the extent of apoptosis.

VEGF = assay: ELISA VEGF assay (DFO-treated cells); type: cell-based, Human; conditions: VEGF released into media by DFO-treated cells, normalized to cell count; read-out: VEGF IC50
Excerpt: ELISA (Enzyme-Linked ImmunoSorbent Assay) VEGF studies were done following manufacturer's instructions using the Endogen® Human VEGF ELISA kit, Catalog No. […] (Pierce Biotechnology, Inc., Rockford, Ill. USA). Hypoxic conditions are created for the cells by treating them with desferrioxamine (DFO), which chelates iron and causes the cells to secrete VEGF into the media. The supernatant (media) was removed and frozen for testing, and the cells were counted with the Trypan Blue assay so that the results can be normalized to cell count. The VEGF is measured with a sandwich ELISA that captures the protein in media on an antibody-coated microplate, and then uses a biotinylated antibody reagent to detect the protein. Results from a standard curve enable the user to quantify the amount of protein in each sample.

[4] = read-out: MCP-1 IC50; TNF-α-treated PHK
[5] = TNF-α-treated PHK; read-out: MCP-1 IC50

Row | SMILES | IC50 ([1]; Homo sapiens, HeLa) | IC50 (MCP-1; [4]) | IC50 (A549 (lung carcinoma); A549, read-out: A549 IC50) | IC50 (MCP-1; [5]) | EC50 [2] | further results
1 | Cc1nc(COc2ccc(C[C@@H](C)[C@@H](C)Cc3ccc(OCc4csc(C)n4)c(OCc4csc(C)n4)c3)cc2OCc2csc(C)n2)cs1 [Compound F, 1,4-bis{3,4-bis(2-methyl-thiazol-4-yl-methoxy)phenyl}-2,3-dimethyl-(2R,3S)-butane tetrakis-hydrochloride salt] | > 100 µM | > 100 µM | > 100 µM |  |  | COS-7 IC50 (COS-7 cells): Variable; SEAP EC50 ([2]; COS-7 cells co-transfected with pHIVSEAP and pCTAT, 48 hours treatment): Variable
2 | C[C@H](Cc1ccc(OCCCN2CCCCC2)c(OCCCN2CCCCC2)c1)[C@@H](C)Cc1ccc(OCCCN2CCCCC2)c(OCCCN2CCCCC2)c1.Cl.Cl.Cl.Cl [Compound B, 1,4-bis{3,4-bis[3-(piperidin-1-yl)propoxy]phenyl}-2,3-dimethyl-(2R,3S)-butane tetrakis-hydrochloride salt] |  |  |  | 2 µM |  | DNA fragmentation [3]: Negative; IC50 ([1]; MTS assay): 1 to 5 µM; IC50 (VEGF): ~2000 nM and 2000 nM
3 | C[C@H](Cc1ccc(OCCO)c(OCCO)c1)[C@@H](C)Cc1ccc(OCCO)c(OCCO)c1 [Compound I, 1,4-bis{3,4-bis(2-hydroxyethoxy)phenyl}-2,3-dimethyl-(2R,3S)-butane] | 20 to 30 µM | 25 µM | 65 to 70 µM |  | 60 to 80 µM | 
4 | C[C@H](Cc1ccc(OCCOCCO)c(OCCOCCO)c1)[C@@H](C)Cc1ccc(OCCOCCO)c(OCCOCCO)c1 [Compound J, 1,4-bis{3,4-bis[2-(2-hydroxyethoxy)ethoxyl]phenyl}-2,3-dimethyl-(2R,3S)-butane] |  |  |  | 70 µM | 80 to 90 µM | IC50 (COS-7 cells; Chlorocebus sabaeus): 80 to 90 µM; IC50 ([1]; Homo sapiens, HeLa, MTS assay): > 100 µM; IC50 (A549 (lung carcinoma); A549, MTS assay, read-out: A549 IC50): 80 to 90 µM
